What all share (assay type): cell-based
The target of test [1] is T1, BmorOR1 (Bombyx mori, UniProt Q5WA61).
T1 construct: gene BmOR-1; full-length; with BmorOrco
T1 sequence (Q5WA61 1-430): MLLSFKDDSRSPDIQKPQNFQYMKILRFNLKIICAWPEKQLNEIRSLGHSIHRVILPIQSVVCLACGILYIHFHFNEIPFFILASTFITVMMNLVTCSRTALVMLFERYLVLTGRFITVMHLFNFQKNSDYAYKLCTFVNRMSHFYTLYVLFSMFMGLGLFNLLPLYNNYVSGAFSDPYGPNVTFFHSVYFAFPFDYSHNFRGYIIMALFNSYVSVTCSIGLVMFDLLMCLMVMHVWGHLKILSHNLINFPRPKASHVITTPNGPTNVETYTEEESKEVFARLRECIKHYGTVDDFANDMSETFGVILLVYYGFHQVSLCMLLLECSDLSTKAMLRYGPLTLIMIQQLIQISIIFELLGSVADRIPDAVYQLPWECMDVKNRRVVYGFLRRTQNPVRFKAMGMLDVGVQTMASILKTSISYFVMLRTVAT
T1 sequence (Q7YT34 1-472 partner): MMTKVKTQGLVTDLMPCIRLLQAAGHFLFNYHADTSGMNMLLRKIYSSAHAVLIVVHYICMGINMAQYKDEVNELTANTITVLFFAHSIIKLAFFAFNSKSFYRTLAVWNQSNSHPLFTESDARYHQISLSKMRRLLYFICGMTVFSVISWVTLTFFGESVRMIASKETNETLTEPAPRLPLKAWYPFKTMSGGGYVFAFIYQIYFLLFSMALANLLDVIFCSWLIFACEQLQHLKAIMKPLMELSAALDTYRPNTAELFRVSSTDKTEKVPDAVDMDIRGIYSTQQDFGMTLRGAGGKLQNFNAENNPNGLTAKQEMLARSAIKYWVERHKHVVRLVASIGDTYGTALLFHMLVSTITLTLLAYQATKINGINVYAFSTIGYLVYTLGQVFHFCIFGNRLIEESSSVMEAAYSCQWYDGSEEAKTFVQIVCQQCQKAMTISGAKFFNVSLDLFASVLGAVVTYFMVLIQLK
Description: two-electrode voltage clamp in Xenopus oocytes expressing BmorOR1 and BmorOrco (perfusion). For orientation: Two-electrode voltage clamp is typically applied to oocytes expressing channels or transporters.

Test [2] has as its target T1, BmorOR1. Kind of test: two-electrode voltage clamp in Xenopus oocytes expressing BmorOR1 and BmorOrco (injection, source dose).
The target in test [3] is T1, BmorOR1. Description: two-electrode voltage clamp in Xenopus oocytes expressing BmorOR1 and BmorOrco, dose-response.

Structures are written as SMILES.

From PMC3434217, “Specificity Determinants of the Silkworm Moth Sex Pheromone” (PLoS ONE, 2012) come the findings set out here.

Broadly, the EC50 is the concentration that produces a half-maximal response. As for `CCC/C=C\C=C\CCCCCCCCCO` [compound 1, (10E,12Z)-hexadecadien-1-ol], the concentration giving a half-maximal response (EC50) on BmorOR1 [1] was found to be 0.0454 µM. Turning to `CCC/C=C\C=C\CCCCCCCCC=O` [bombykal], at BmorOR1 [2], the EC50 was found to be 9.6 µM.

Consider `CCC/C=C\C=C\CCCC/C=C\CCCO` [compound 11, (4Z,10E,12Z)-hexadecatrien-1-ol], for which it took 13 µM to reach a half-maximal effect at BmorOR1 [3] (EC50). At BmorOR1 [3], `CCC/C=C\C=C\CCCCC#CCCCO` [compound 10] had an EC50 of 17 µM.
